# Reference: the supplement of paper PMC11208160
# Assay: recombinant UMI read abundance after kanamycin selection (control-corrected) (log10(CPM+1)); higher = more efficient recombination; extreme values may be limits of the assay; sequences stand for … in AGTGCAGAGAAAATCGGCCAGTTTTCTCTGCCTGCAGTCCGCATGCCGTGGGACCCCTTGGGTTCTAACCTGTTGCCTAGATTTATGCAGCGGACTGCCTTTCTCCCAAAGTGATAAACCGG…AGGTTGGTTTCACT; site = the 11-nt donor
# How it was run: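 Counts of recombinant UMIs were reported as log10(CPM+1). Before that, they were converted to CPM, averaged over replicates and scaled using control-derived factors. They came from PCR across the donor–target junction after Escherichia coli carrying the pair library and target plasmid was plated on IPTG (0.07 mM) plus kanamycin, or unselected, in two replicates each.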
# 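Also: IS621 bridge recombinase in Escherichia coli cells against a fixed T5 target plasmid.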
row,Sequence,recombinant UMI read abundance (log10)
1,CGATCATCATGGACCGGTTTTCCCGGTAATCCGTATTTGCT (site CGATTATCTTG),0
2,CGATCATCATGGACCGGTTTTCCCGGTAATCCGTATTTGCT (site CGATTTTCTAG),0
3,CGATCATCATGGACCGGTTTTCCCGGTAATCCGTATTTGCT (site CGCCCATCTAG),0.133
4,CGATCATCATGGACCGGTTTTCCCGGTAATCCGTATTTGCT (site CGCTAATCTAG),0
5,CGATCATCATGGACCGGTTTTCCCGGTAATCCGTATTTGCT (site CGCTCAACTAG),0
6,CGATCATCATGGACCGGTTTTCCCGGTAATCCGTATTTGCT (site CGCTCATCTAC),0.00488
7,CGATCATCATGGACCGGTTTTCCCGGTAATCCGTATTTGCT (site CGCTCATCTAG),0.295
8,CGATCATCATGGACCGGTTTTCCCGGTAATCCGTATTTGCT (site CGCTCATCTCG),0
9,CGATCATCATGGACCGGTTTTCCCGGTAATCCGTATTTGCT (site CGCTCCTCTAG),0
10,CGATCATCATGGACCGGTTTTCCCGGTAATCCGTATTTGCT (site CGGGCATCTAG),0
11,CGATCATCATGGACCGGTTTTCCCGGTAATCCGTATTTGCT (site CGGTCAGCTAG),0.0144
12,CGATCATCATGGACCGGTTTTCCCGGTAATCCGTATTTGCT (site CGGTCATCTAA),0.0171
13,CGATCATCATGGACCGGTTTTCCCGGTAATCCGTATTTGCT (site CGGTCATCTAG),0
14,CGATCATCATGGACCGGTTTTCCCGGTAATCCGTATTTGCT (site CGGTCATCTTG),0.00419
15,CGATCATCATGGACCGGTTTTCCCGGTAATCCGTATTTGCT (site CGGTCTTCTAG),0.0105
16,CGATCATCATGGACCGGTTTTCCCGGTAATCCGTATTTGCT (site CGGTTATCTAG),0
17,CGATCATCATGGACCGGTTTTCCCGGTAATCCGTATTTGCT (site CGTACATCTAG),1.61
18,CGATCATCATGGACCGGTTTTCCCGGTAATCCGTATTTGCT (site CGTTCACCTAG),0
19,CGATCATCATGGACCGGTTTTCCCGGTAATCCGTATTTGCT (site CGTTCATCTAG),1.53

row,Sequence,recombinant UMI read abundance (log10)
1,CGATCATCATGGACCGGTTTTCCCGGTAATCCGTATTTGCT (site CGTTCATCTAT),0
2,CGATCATCATGGACCGGTTTTCCCGGTAATCCGTATTTGCT (site CGTTCATCTGG),0
3,CGATCATCATGGACCGGTTTTCCCGGTAATCCGTATTTGCT (site CGTTCGTCTAG),0.0117
4,CGATCATCATGGACCGGTTTTCCCGGTAATCCGTATTTGCT (site CGTTGATCTAG),0
5,CGATCATCATGGACCGGTTTTCCCGGTAATCCGTATTTGCT (site CTACCATCTAG),1.69
6,CGATCATCATGGACCGGTTTTCCCGGTAATCCGTATTTGCT (site CTATAATCTAG),1.08
7,CGATCATCATGGACCGGTTTTCCCGGTAATCCGTATTTGCT (site CTATCAACTAG),0
8,CGATCATCATGGACCGGTTTTCCCGGTAATCCGTATTTGCT (site CTATCATCTAC),0.00862
9,CGATCATCATGGACCGGTTTTCCCGGTAATCCGTATTTGCT (site CTATCATCTAG),1.22
10,CGATCATCATGGACCGGTTTTCCCGGTAATCCGTATTTGCT (site CTATCATCTCG),0.0222
11,CGATCATCATGGACCGGTTTTCCCGGTAATCCGTATTTGCT (site CTATCCTCTAG),0
12,CGATCATCATGGACCGGTTTTCCCGGTAATCCGTATTTGCT (site CTCTCATCTAG),0.961
13,CGATCATCATGGACCGGTTTTCCCGGTAATCCGTATTTGCT (site GAATCATCTAG),0
14,CGATCATCATGGACCGGTTTTCCCGGTAATCCGTATTTGCT (site GGAACATCTAG),0.00516
15,CGATCATCATGGACCGGTTTTCCCGGTAATCCGTATTTGCT (site GGATCACCTAG),0.00443
16,CGATCATCATGGACCGGTTTTCCCGGTAATCCGTATTTGCT (site GGATCATCTAG),0.606
17,CGATCATCATGGACCGGTTTTCCCGGTAATCCGTATTTGCT (site GGATCATCTAT),0.0067
18,CGATCATCATGGACCGGTTTTCCCGGTAATCCGTATTTGCT (site GGATCATCTGG),0
19,CGATCATCATGGACCGGTTTTCCCGGTAATCCGTATTTGCT (site GGATCGTCTAG),0.00614

row,Sequence,recombinant UMI read abundance (log10)
1,CGATCATCATGGACCGGTTTTCCCGGTAATCCGTATTTGCT (site GGATGATCTAG),0
2,CGATCATCATGGACCGGTTTTCCCGGTAATCCGTATTTGCT (site GGTTCATCTAG),0
3,CGATCATCATGGACCGGTTTTCCCGGTAATCCGTATTTGCT (site TGACCATCTAG),1.21
4,CGATCATCATGGACCGGTTTTCCCGGTAATCCGTATTTGCT (site TGATAATCTAG),0
5,CGATCATCATGGACCGGTTTTCCCGGTAATCCGTATTTGCT (site TGATCAACTAG),0
6,CGATCATCATGGACCGGTTTTCCCGGTAATCCGTATTTGCT (site TGATCATCTAC),0.00378
7,CGATCATCATGGACCGGTTTTCCCGGTAATCCGTATTTGCT (site TGATCATCTAG),0.864
8,CGATCATCATGGACCGGTTTTCCCGGTAATCCGTATTTGCT (site TGATCATCTCG),0.00793
9,CGATCATCATGGACCGGTTTTCCCGGTAATCCGTATTTGCT (site TGATCCTCTAG),0
10,CGATCATCATGGACCGGTTTTCCCGGTAATCCGTATTTGCT (site TGCTCATCTAG),0
11,CGATCATCATGGACCGGTTTTCCCGGTAATCCGTATTTGCT (site TTATCATCTAG),1.88
12,CGATCATCATGGACCGGTTTTCCCGGTAATCCGTATTTGTA (site CGATCATCTAG),0
13,CGATCATCATGGACCGGTTTTCCCGGTAATCCGTATTTGTA (site CGATCATCTTA),2.57
14,CGATCATCATGGACCGGTTTTCCCGGTAATCCGTATTTGTT (site CGATCATCTAA),1.4
15,CGATCATCATGGACCGGTTTTCCCGGTAATCCGTATTTGTT (site CGATCATCTAC),0
16,CGATCATCATGGACCGGTTTTCCCGGTAATCCGTATTTGTT (site CGATCATCTAG),0
17,CGATCATCATGGACCGGTTTTCCCGGTAATCCGTATTTGTT (site CGATCATCTAT),0.00529
18,CGATCCACATGGACCGGTTTTCCCGGTAATCCGTATTTGCT (site CGATCATCTAG),0
19,CGATCCACATGGACCGGTTTTCCCGGTAATCCGTATTTGCT (site CGATCCACTAG),2.75
